Results: the NIST ThermoML archive (doi:10.1021/je2010837)

Conditions: 101.33 kPa, Liquid; for viscosity: Concentric cylinders viscometry; for electrical conductivity: Direct current cell with electrodes

CCCC[N+]1(C)CCCC1.O=S(=O)([N-]S(=O)(=O)C(F)(F)F)C(F)(F)F
Conditions | electrical conductivity [S/m] | mass density [kg/m3] | viscosity [mPa·s]
293.15 K | – | 1399 | –
298.15 K | 0.277 | 1394.57 | 76.73
299.15 K | 0.288 | – | –
300.15 K | 0.3 | – | –
301.15 K | 0.313 | – | –
302.15 K | 0.327 | – | –
303.15 K | 0.34 | 1390.02 | 61.67
304.15 K | 0.354 | – | –
305.15 K | 0.368 | – | –
306.15 K | 0.383 | – | –
307.15 K | 0.398 | – | –
308.15 K | 0.412 | 1385.48 | 50.49
309.15 K | 0.427 | – | –
310.15 K | 0.443 | – | –
311.15 K | 0.459 | – | –
312.15 K | 0.475 | – | –
313.15 K | 0.492 | 1380.93 | 41.73
314.15 K | 0.509 | – | –
315.15 K | 0.527 | – | –
316.15 K | 0.544 | – | –
317.15 K | 0.562 | – | –
318.15 K | 0.58 | 1376.28 | 34.67
319.15 K | 0.598 | – | –
320.15 K | 0.616 | – | –
321.15 K | 0.635 | – | –
322.15 K | 0.655 | – | –
323.15 K | 0.673 | 1371.64 | 29.48
324.15 K | 0.694 | – | –
325.15 K | 0.713 | – | –
326.15 K | 0.733 | – | –
327.15 K | 0.754 | – | –
328.15 K | 0.775 | 1366.9 | 25.43
329.15 K | 0.795 | – | –
330.15 K | 0.816 | – | –
331.15 K | 0.839 | – | –
332.15 K | 0.86 | – | –
333.15 K | 0.884 | 1362.2 | 21.9
334.15 K | 0.911 | – | –
335.15 K | 0.938 | – | –
336.15 K | 0.965 | – | –
337.15 K | 0.993 | – | –
338.15 K | 1.02 | 1357.35 | 19.16
339.15 K | 1.05 | – | –
340.15 K | 1.08 | – | –
341.15 K | 1.11 | – | –
342.15 K | 1.13 | – | –
343.15 K | 1.17 | 1352.44 | 16.82
344.15 K | 1.2 | – | –
345.15 K | 1.23 | – | –
346.15 K | 1.26 | – | –
347.15 K | 1.29 | – | –
348.15 K | 1.32 | 1347.48 | 14.8
349.15 K | 1.36 | – | –
350.15 K | 1.4 | – | –
351.15 K | 1.43 | – | –
352.15 K | 1.46 | – | –
353.15 K | 1.49 | 1342.48 | 13.24

CCCC[n+]1ccn(C)c1.O=S(=O)([N-]S(=O)(=O)C(F)(F)F)C(F)(F)F
Conditions | electrical conductivity [S/m] | mass density [kg/m3] | viscosity [mPa·s]
293.15 K | – | 1439.27 | –
298.15 K | 0.402 | 1434.3 | 50.05
299.15 K | 0.417 | – | –
300.15 K | 0.435 | – | –
301.15 K | 0.453 | – | –
302.15 K | 0.47 | – | –
303.15 K | 0.488 | 1429.4 | 41.24
304.15 K | 0.506 | – | –
305.15 K | 0.524 | – | –
306.15 K | 0.543 | – | –
307.15 K | 0.562 | – | –
308.15 K | 0.581 | 1424.57 | 33.65
309.15 K | 0.602 | – | –
310.15 K | 0.622 | – | –
311.15 K | 0.643 | – | –
312.15 K | 0.664 | – | –
313.15 K | 0.684 | 1419.61 | 28.28
314.15 K | 0.706 | – | –
315.15 K | 0.729 | – | –
316.15 K | 0.751 | – | –
317.15 K | 0.773 | – | –
318.15 K | 0.795 | 1414.67 | 23.91
319.15 K | 0.82 | – | –
320.15 K | 0.842 | – | –
321.15 K | 0.866 | – | –
322.15 K | 0.891 | – | –
323.15 K | 0.921 | 1409.65 | 20.64
324.15 K | 0.949 | – | –
325.15 K | 0.983 | – | –
326.15 K | 1.01 | – | –
327.15 K | 1.04 | – | –
328.15 K | 1.07 | 1404.64 | 17.9
329.15 K | 1.1 | – | –
330.15 K | 1.14 | – | –
331.15 K | 1.17 | – | –
332.15 K | 1.21 | – | –
333.15 K | 1.24 | 1399.6 | 15.51
334.15 K | 1.27 | – | –
335.15 K | 1.31 | – | –
336.15 K | 1.34 | – | –
337.15 K | 1.38 | – | –
338.15 K | 1.41 | 1394.43 | 13.71
339.15 K | 1.45 | – | –
340.15 K | 1.48 | – | –
341.15 K | 1.52 | – | –
342.15 K | 1.55 | – | –
343.15 K | 1.59 | 1389.16 | 12.09
344.15 K | 1.63 | – | –
345.15 K | 1.67 | – | –
346.15 K | 1.71 | – | –
347.15 K | 1.74 | – | –
348.15 K | 1.78 | 1383.85 | 10.78
349.15 K | 1.82 | – | –
350.15 K | 1.86 | – | –
351.15 K | 1.9 | – | –
352.15 K | 1.94 | – | –
353.15 K | 1.98 | 1378.53 | 9.69
